# Test results taken from patent publication US9376391B2, “Difluoromethyl-nicotinic-tetrahydronaphthyl carboxamides as fungicides” (BAYER CROPSCIENCE AKTIENGESELLSCHAFT, priority 2012, dated 2016).
# Legend:
# [1] = log P by HPLC on reversed phase columns (EEC directive 79/831 Annex V.A8); type: physicochemical; conditions: Table 1, formula (I); HPLC/LC-MS at pH 2.7, 0.1% formic acid in water / acetonitrile, gradient 10% to 95%
# [2] = test system: Sphaerotheca fuliginea; experiment: In vivo preventive test on Sphaerotheca fuliginea (powdery mildew on cucurbits)
# Outline: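 Gherkin plants at Z11 cotyledon stage were sprayed with compound in acetone/tween/DMSO/water. After 24 h they were inoculated with S. fuliginea spores (100 000 spores per ml) and incubated at about 20° C and 70-80% RH. Percent efficacy versus solvent-treated controls was scored 12 days post-inoculation.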
# [3] = test system: Puccinia recondita; experiment: In vivo preventive test on Puccinia recondita (brown rust on wheat)
# Outline: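 Wheat seedlings ("Scipion") sprayed with compound at the 1-leaf stage, inoculated 24 h later with Puccinia recondita spores (100 000 spores per ml). Incubated 24 h at 20° C and 100% RH, then 10 days at 20° C and 70-80% RH. Efficacy (%) versus solvent-treated controls graded 12 days after contamination.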
# [4] = dose 100 ppm of active ingredient, comparison with known compounds
structure (smiles),measurement,setting,value
CC1CC(C)(C)c2cccc(NC(=O)c3cccnc3C(F)F)c21 (stereo not shown) [Example 1],logP^[a],[1],3.29^[a]
same,Eff. %,"[2]; 500 ppm, preventive spray, gherkin plants, grading 12 days after contamination",100%
same,protection (in words),[2]; [4],total protection
same,Efficacy,"[2]; dose 100 ppm, comparison with prior-art compounds, gherkin plants, grading 12 days after contamination",100%
same,protection (in words),[3]; [4],total protection
same,Efficacy,"[3]; dose 100 ppm, comparison with known compounds, same conditions",100%
same,Eff. %,"[3]; dose 500 ppm, wheat, spray, graded 12 days after contamination vs control plants",100%
